The values that follow come from patent US20220354752A1, “NANOFIBRE MATRIX MADE OF NATURAL POLYMERS WITH NATURAL FUNCTIONAL INGREDIENTS FOR COSMETIC PRODUCTS” (NANOLAYR LIMITED, priority 2019, published 2022).

One assay has as its system TNF-alpha. Description: Anti-inflammatory in vitro study: TNF-alpha in reconstructed epidermis treated with SDS. It is filed as cell-based. To be noted: human reconstructed epidermis, 0.1% SDS, 24 hours incubation. How it is done: A human reconstructed epidermis is put in contact with the vegan nanofibres (topical application to mimic the real condition of use) and treated with an irritant inflammatory agent such as sodium dodecyl sulfate (SDS) to assess the capability of vegan nanofibers to counteract the inflammatory event. The evaluation is performed by using a non-treated epidermis as negative control and the epidermis treated only with the inflammatory agent (SDS) as a positive control. TNF-alpha is often associated with the inflammatory process and oxidative stress as an acute pro-inflammatory marker.

Assay [1] relates to human epidermal melanocytes. Description: Brightening in vitro study: melanin production of melanocytes. To be noted: kojic acid 42 μg/ml in cell culture, 96 hours incubation. The class given is cell-based. The method, then:
In vitro study is used to evaluate the brightening effect and is determined by analysing the melanin production of melanocytes. The level of melanin produced by melanocytes determines the colour of skin, therefore, the brightening effect can be evaluated by the impact of formulation on the melanin production of melanocytes. In this study, human epidermal melanocytes are utilised. Kojic acid, traditionally used as a brightening ingredient, is used as the positive control. Kojic add is prepared in 15% ethanol/Hanks balanced salt solution and added into cell culture to give final concentration of 42 μg/ml in cell culture. 0.8 cm circles of nanofibre is directly applied into the cell culture to give a final concentration of ethyl ascorbic add of 3 μg/ml in cell culture. FIG. 5 presents the result of melanin concentration in cells only, cells treated with kojic acid and cells treated with nanofibres after 96 hours incubation time.
The absorbance of each sample is read at 405 nm and then compared with a standard curve of synthetic melanin to estimate the concentration of melanin in the cell culture. […] The melanin concentration is 101.5 μg/ml in cells only, 101.1 μg/ml in cells with kojic add and 97.48 μg/ml in cells with nanofibres. […] This is probably due to the added kojic add concentration being very low. […]

Consider `CCCCCCCCCCCCOS(=O)(=O)[O-].[Na+]` [SDS, sodium dodecyl sulfate], for which the “concentration of TNF-alpha” value in the assay with TNF-alpha was 47.92 µg/mL.
For the compound `O=c1cc(CO)occ1O` [kojic acid], in assay [1], the “inhibition to melanin production” value was “slight inhibition to melanin production, but is not statistically significant” and the melanin concentration is 101.1 µg/mL.
